Source: the OPERA property sets (Mansouri et al. 2018)

details: not given

Structure (SMILES) | melting point | boiling point | log10 Koc (L/kg) | log10 Henry constant (atm·m³/mol) | log10 vapour pressure (mmHg) | ready biodegradability | log10 Koa
CO[C@H]1[C@H](O)[C@H](O[C@H]2CC[C@@]3(C=O)[C@H](CC[C@@H]4[C@@H]3CC[C@]3(C)[C@@H](C5=CC(=O)OC5)CC[C@]43O)C2)O[C@@H](C)[C@@H]1O | 162 °C |  |  |  |  |  | 
FC(F)(F)C(F)(F)C(Cl)(Cl)Cl | -80 °C | 74 °C |  |  |  |  | 
CCC(C(N)=O)n1nc2ccccc2n1 (stereo unspecified) | 128 °C |  |  |  |  |  | 
CC(=O)Nc1cccc(Cl)c1 | 80 °C |  | 1.86 |  |  |  | 
Cc1ccccc1CC=O |  | 221 °C |  |  |  |  | 
Clc1cccc(-c2cccc(Cl)c2)c1 | 29 °C | 320 °C |  | -3.63 | -3.19 |  | 
CC(F)F | -117 °C | -24.9 °C |  | -1.69 | 3.66 |  | 
Cc1cc(S(=O)(=O)c2ccccc2)ccc1NS(=O)(=O)C(F)(F)F | 143 °C |  | 3.08 |  |  |  | 
CC(=O)NC(N)=S | 165 °C |  |  |  |  |  | 
CC(=O)Nc1ccc(N)cc1 | 166 °C | 267 °C |  |  |  | readily biodegradable | 
Clc1ccc2c(Cl)c(Cl)ccc2c1 |  |  |  |  |  |  | 7.5
COC(=O)C(C)C(C)=O (stereo unspecified) |  | 177 °C |  |  |  |  | 
Cc1cc(N)ccc1N=Nc1ccc([N+](=O)[O-])cc1 |  |  |  |  | -9.15 |  | 
Cc1cc(-c2ccc(N=C=O)c(C)c2)ccc1N=C=O | 71 °C |  |  |  |  |  | 
Fc1cccc2[nH]nnc12 |  |  | 1.87 |  |  |  | 
NCC(=O)O |  |  |  |  |  | readily biodegradable | 
Clc1cc(Cl)c2oc3cc(Cl)c(Cl)cc3c2c1 | 202 °C |  |  |  | -7.71 |  | 
c1cc2c(c3c1CCCC3)CCCC2 | 16.7 °C | 295 °C |  |  |  |  | 
CC(=O)[C@H]1CC[C@H]2[C@@H]3CC[C@H]4C[C@H](N)CC[C@]4(C)[C@H]3CC[C@]12C | 126 °C |  |  |  |  |  | 
Nc1cc([N+](=O)[O-])ccc1Cl | 121 °C |  |  |  |  |  | 
OCc1c2ccccc2cc2ccccc12 |  |  | 3.61 |  |  |  | 
C=C(Cl)C(=C)Cl |  | 98 °C |  |  |  |  | 
CC(C)CCC[C@@H](C)[C@H]1CC[C@H]2[C@@H]3CC=C4C[C@@H](OC(=O)Cc5ccc(N(CCCl)CCCl)cc5)CC[C@]4(C)[C@H]3CC[C@]12C | 90 °C |  |  |  |  |  | 
O=[N+]([O-])c1ccc(-c2ccccc2)cc1 | 114 °C | 340 °C |  |  |  |  | 
c1ccc2c(c1)Nc1ccccc1S2 | 188 °C | 371 °C |  |  |  | not readily biodegradable | 
Cc1ccc(O)c(-n2n3c4ccccc4n23)c1 |  |  |  |  |  | not readily biodegradable | 

Structure (SMILES) | melting point | boiling point | log10 Koc (L/kg) | log10 Henry constant (atm·m³/mol) | log10 vapour pressure (mmHg) | ready biodegradability | log10 Koa
CCc1ccccc1[N+](=O)[O-] | -12.3 °C | 232 °C |  |  |  | not readily biodegradable | 
CCOC(=O)CS |  | 157 °C |  |  |  |  | 
CCCCCCBr | -84.7 °C | 155 °C |  |  | 0.591 |  | 
CCC(C(C)=O)C(=O)OC (stereo unspecified) |  | 182 °C |  |  |  |  | 
CCCCCI | -85.6 °C | 155 °C |  | -1.71 | 0.642 |  | 
CCOCOCOCC |  | 141 °C |  |  |  |  | 
CC1=CC(=O)C(C(C)C)CC1 (stereo unspecified) |  | 233 °C |  |  |  |  | 
COCC(=O)OC |  | 131 °C |  |  |  |  | 
C1=CC2CCC1C2 | 45 °C | 96 °C |  |  | 1.59 |  | 
CCC(N)C(=O)O (stereo unspecified) | 304 °C |  |  |  |  |  | 
CC1OCCO1 |  | 81.5 °C |  |  |  |  | 
Clc1cc2c(cc1Cl)Oc1c(Cl)c(Cl)cc(Cl)c1O2 | 206 °C |  |  |  | -9.23 |  | 
Clc1cccc(-c2c(Cl)c(Cl)c(Cl)c(Cl)c2Cl)c1 |  |  |  | -4.7 |  |  | 
C=C(C(=O)O)C(F)(F)F | 51.5 °C |  |  |  |  |  | 
CCOS(=O)(=O)OCC | -24 °C | 208 °C |  |  | -0.674 | readily biodegradable | 
C#CCCCCCCCCC | -25 °C | 196 °C |  |  |  |  | 
O=C(O)Cc1c(F)c(F)c(F)c(F)c1F | 109 °C |  |  |  |  |  | 
CC(=O)OC[C@H]1O[C@@](COC(C)=O)(O[C@H]2O[C@H](COC(C)=O)[C@@H](OC(C)=O)[C@H](OC(C)=O)[C@H]2OC(C)=O)[C@@H](OC(C)=O)[C@@H]1OC(C)=O | 86.5 °C |  |  |  |  |  | 
O=C1NC(=O)c2cc([N+](=O)[O-])ccc21 | 201 °C |  |  |  |  |  | 
CC(C)CC(=O)C=Cc1ccccc1 | 43 °C |  |  |  |  |  | 
COc1ccc2c(C(=O)c3ccc(Cl)cc3)c(C)n(CC(=O)O)c2c1 | 242 °C |  |  |  |  |  | 
CCOc1ccc(CC(=O)O)cc1 | 88.5 °C |  |  |  |  |  | 
O=C(OC(=O)C(F)(F)C(F)(F)C(F)(F)F)C(F)(F)C(F)(F)C(F)(F)F | -43 °C | 106 °C |  |  |  |  | 
CCCC=CC(=O)OCC |  | 174 °C |  |  |  |  | 
CCOC(=O)c1cccc([N+](=O)[O-])c1 | 47 °C | 297 °C |  |  |  |  | 
CCOC(=O)CC1CCCCC1 |  | 211 °C |  |  |  |  | 

Structure (SMILES) | melting point | boiling point | log10 Koc (L/kg) | log10 Henry constant (atm·m³/mol) | log10 vapour pressure (mmHg) | ready biodegradability | log10 Koa
C1=CCCCCCC1 | -12 °C |  |  |  |  |  | 
COc1cccc(S)c1 |  | 224 °C |  |  |  |  | 
O=NN1CCOCC1 | 29 °C | 225 °C |  |  |  |  | 
CCCCCCCCCCCCCCCC#N | 31 °C | 333 °C |  |  |  |  | 
CC=CC=CC(=O)OCC |  | 196 °C |  |  |  |  | 
CCOC(=O)C(C(=O)OCC)=C(C)C |  | 176 °C |  |  |  |  | 
C[N+](C)(C)OP(=O)([O-])OP(=O)(O)OC[C@H]1O[C@@H](n2ccc(N)nc2=O)[C@H](O)[C@@H]1O |  |  |  |  |  | readily biodegradable | 
CCN(CCO)CCO | -50 °C | 247 °C |  |  |  | not readily biodegradable | 
NS(=O)(=O)c1cc2c(s1)S(=O)(=O)CCC2=O | 242 °C |  |  |  |  |  | 
CC(=O)c1cccc2ccccc12 | 34 °C | 297 °C |  |  | -3.41 |  | 
O=C1CCCCCC1=O | -40 °C |  |  |  |  |  | 
c1ccc(C2c3ccccc3-c3ccccc32)cc1 | 147 °C |  |  |  |  |  | 
Nc1ccc2c(c1)Cc1ccccc1-2 | 129 °C |  |  |  |  |  | 
CCNCC.Cl | 228 °C |  |  |  |  |  | 
Cc1cccc(N=Cc2ccccc2)c1 | 31 °C | 315 °C |  |  |  |  | 
O=[N+]([O-])c1cc([N+](=O)[O-])c(Cl)c(C(F)(F)F)c1 | 63 °C |  |  |  |  |  | 
CC(C)(C)OC(=O)C1(S(=O)(=O)c2ccc(Cl)cc2)CC1 | 110 °C |  |  |  |  |  | 
O=C(Nc1ccc(Cl)c(Cl)c1)c1cc(Cl)cc(Cl)c1O | 161 °C |  |  |  |  |  | 
CC1(C)C2CC3C(C2)C31C | 67.5 °C | 152 °C |  |  |  |  | 
O=Cc1ccc(O)c(Cl)c1 | 139 °C |  |  |  |  |  | 
C=C(C)c1ccc(O)cc1 |  |  |  |  |  | not readily biodegradable | 
CCCCN(CCO)CCCC | -75 °C | 229 °C |  |  |  | not readily biodegradable | 
CCCC(C)(CC)CCC |  | 161 °C |  |  |  |  | 
CN1CN(C)CN(C)C1 | -27 °C | 163 °C |  |  |  |  | 
N#CCCOCCC#N | -26.3 °C | 306 °C |  |  | -3.76 | readily biodegradable | 
OCCCCCCCCCCCCO | 81.3 °C |  |  |  |  |  | 

Structure (SMILES) | melting point | boiling point | log10 Koc (L/kg) | log10 Henry constant (atm·m³/mol) | log10 vapour pressure (mmHg) | ready biodegradability | log10 Koa
Cc1ccc2ccc3ccc(C)nc3c2n1 | 160 °C |  |  |  |  |  | 
NNC(=O)c1ccccc1O | 148 °C |  |  |  |  |  | 
O=c1[nH]cc(F)c(=O)[nH]1 | 283 °C |  |  |  |  |  | 
CC#N | -43.8 °C | 81.6 °C |  | -4.46 | 1.95 | readily biodegradable | 2.31
Nc1ccc(C2CCCCC2)cc1 | 54.5 °C |  |  |  |  |  | 
ClCc1ccc(Cl)c(Cl)c1 | 37.5 °C | 241 °C |  |  |  | not readily biodegradable | 
CCC1(C)CC1 | -130 °C | 56.8 °C |  |  |  |  | 
C=CCC(C)C(C)C (stereo unspecified) |  | 109 °C |  |  |  |  | 
CCCCOC=O | -91.5 °C | 106 °C |  |  | 1.46 |  | 
CCN(C)N=O |  | 170 °C |  |  |  |  | 
Nc1c(Cl)cc([N+](=O)[O-])cc1[N+](=O)[O-] |  |  |  |  |  | not readily biodegradable | 
N#C[S-].[K+] | 173 °C |  |  |  |  |  | 
CCc1c(C(=O)O)c(=O)cnn1-c1ccc(Cl)cc1 | 269 °C |  |  |  |  |  | 
c1ccc2occc2c1 |  | 174 °C |  |  | -0.356 |  | 
CCOc1ccc(CC)cc1 |  | 210 °C |  |  |  |  | 
Cc1ccccc1[N+](=O)[O-] | -10 °C | 222 °C |  | -4.9 | -0.726 | not readily biodegradable | 
CCCCCCCCCCCCCCCC(=O)OCCC | 20.4 °C |  |  |  |  |  | 
C[N+](C)(C)CC(=O)O.[Cl-] | 242 °C |  |  |  |  |  | 
O=Cc1cccnc1 |  |  |  | -6.82 |  |  | 
O=C(CBr)c1ccc(Br)cc1 | 111 °C |  |  |  |  |  | 
Nc1cccc2cccc(N)c12 | 66.5 °C |  |  |  |  | not readily biodegradable | 
ClC1=C(Cl)C(Cl)(Cl)C(Cl)=C1Cl | -9 °C | 239 °C |  | -1.57 | -1.22 | not readily biodegradable | 
CCCCCCCCCCCCCCCc1ccccc1 | 22 °C | 373 °C |  |  | -5.14 |  | 
O=C1C(Cl)=C(Cl)C(=O)c2ccccc21 | 195 °C |  | 3.98 |  | -5.96 | not readily biodegradable | 
O=Cc1c(F)c(F)cc(F)c1F |  | 178 °C |  |  |  |  | 
CCCCC(CC)COC(=O)c1ccc(C(=O)OCC(CC)CCCC)c(C(=O)OCC(CC)CCCC)c1 (stereo unspecified) |  | 414 °C |  |  |  | not readily biodegradable | 

same assay, conditions: fish

Structure (SMILES) | log10 biotransformation half-life (days) | log10 BCF
c1cc2c(c3c1CCCC3)CCCC2 | 0.76 | 
c1ccc2c(c1)Nc1ccccc1S2 | 0.04 | 2.55
CCc1ccccc1[N+](=O)[O-] | -0.56 | 1.11
Cc1ccccc1[N+](=O)[O-] | -0.48 | 1.26
Nc1cccc2cccc(N)c12 | -0.73 | 0.8
CCCCC(CC)COC(=O)c1ccc(C(=O)OCC(CC)CCCC)c(C(=O)OCC(CC)CCCC)c1 (stereo unspecified) |  | 1.17
